Test results taken from patent US10080748B2, “Use of flap inhibitors to reduce neuroinflammation mediated injury in the central nervous system” (Bioscience Pharma Partners, LLC, priority 2014, dated 2018).

Tests used:
[1] = system: human whole blood; experiment: Human whole blood bioassay of LTB4, 5-HETE and AA production; format: cell-based; settings: human whole blood; data not shown
Description: The results are for the effects of these two FLAP inhibitors on LTB4 production and 5-HETE production. It is known that indole-acetic acid FLAP inhibitors like MK-886, MK-591 display high plasma protein binding. Thus, the potencies of these FLAP inhibitors for blocking leukotrienes in vivo are about 100 fold higher than the affinity of the inhibitors for FLAP binding. The inventors developed a bioassay that closely predicts the in vivo potency of FLAP inhibitors using human whole blood. Briefly, whole blood is incubated with a calcium ionophore like […] or zymosan in the absence or presence of increasing concentrations of a FLAP inhibitor. After incubation at 37° C. for 30 minutes, the samples are centrifuged and the plasma supernatant is subjected to reverse phase liquid chromatography coupled to tandem mass spectrometry to quantify levels of LTB4, 5-HETE, and AA production. Drug IC50 values are determined by non-linear regression analysis (GraphPad Prism).). […] As FLAP inhibitors are poorly water soluble drugs, the inventors have shown that such hydrophobic drugs can be formulated in a carrier comprising one or more vegetable oils, such as olive oil, and phosphatidylserine that are found on the Generally Accepted as Safe (GRAS) list and that such drugs can then be rapidly delivered and targeted to the brain and upper spinal cord. Hanson L R, et al, Drug Delivery 19(3):149-54, 2012.

[2] = system: rats subjected to FPI (TBI model); experiment: Evans Blue extravasation, BBB permeability in hippocampus (rat FPI); format: in vivo; settings: 15 minutes after TBI; slices five hours post-injury
Experimental: Craniotomy and lateral fluid percussion injury (FPI) were performed using a previously validated and published procedure. Farias S, et al. J. Neurotraum, 26, 1977-1986, 2009; Frey L. C. et al. J. Neurosci. Methods 177, 267-272, 2009. Throughout the specification animals subjected to this protocol are referred to as having a TBI since this treatment protocol is a TBI model. Briefly, rats were anesthetized with 3-5% isoflurane, isosol, VEDCO Inc., St. Joseph, Mo., via nose cone and mounted in a stereotaxic head frame. A 3 millimeter (mm) craniotomy was created and centered at 3 mm caudal to bregma and 3.5 mm left of the sagittal suture, keeping the exposed dura intact. […] Moistened food pellets were provided after injury, and all animals were monitored daily for well-being and weight changes. […]
One hour prior to FPI, rats received a 5 ml intraperitoneal (IP) injection of Evans Blue (EB) solution, 2% w/v in saline. […] Images from each slice were stitched together using Fiji/ImageJ (NIH), and EB-positive cells in the hippocampal cell layers were quantified using the cell counter tool.
The inventors utilized Evans Blue (EB) fluorescence to assess BBB permeability in the rat FPI model. […] Fluorescence microscopy was used to image brain slices harvested five hours post-injury, taking advantage of EB's intrinsic fluorescent properties, excitation at 620 nm and emission at 680 nm. […]

[3] = system: rats subjected to FPI (TBI model); experiment: Rotarod vestibulomotor performance after TBI (rat FPI); format: in vivo; settings: administered 15 minutes after TBI
Experimental: Craniotomy and lateral fluid percussion injury (FPI) were performed using a previously validated and published procedure. Farias S, et al. J. Neurotraum, 26, 1977-1986, 2009; Frey L. C. et al. J. Neurosci. Methods 177, 267-272, 2009. Throughout the specification animals subjected to this protocol are referred to as having a TBI since this treatment protocol is a TBI model. Briefly, rats were anesthetized with 3-5% isoflurane, isosol, VEDCO Inc., St. Joseph, Mo., via nose cone and mounted in a stereotaxic head frame. A 3 millimeter (mm) craniotomy was created and centered at 3 mm caudal to bregma and 3.5 mm left of the sagittal suture, keeping the exposed dura intact. One steel support screw was embedded in the skull on the contralateral side. A Luer-Lock hub with an inside diameter of 3.5 mm was centered over the craniotomy and bonded to the skull with cyanoacrylate adhesive and capped. Dental acrylic, Snap, Parka, Inc., Edgewood, N.J., was poured around the huh and screw. […] Moistened food pellets were provided after injury, and all animals were monitored daily for well-being and weight changes.
For rotarod testing, the rod's rotation was programmed to accelerate from 0 to 50 rpm over the course of 300 seconds. Four trials were run at each selected time point after injury and the individual trial and mean times for each animal are recorded. […]

CC(C)c1ccc2c(c1)c(SC(C)(C)C)c(CC(C)(C)C(=O)O)n2Cc1ccc(Cl)cc1 [MK-886, 1-[(4-Chlorophenyl)methyl]-3-[(1,1-dimethylethyl)thio]-α,α-dimethyl-5-(1-methylethyl)-1H-Indole-2-propanoic acid]
AA production [1]: neither of the FLAP inhibitors effected AA production | number of EB-positive cells in the CA1 region [2]: 69.25+/−36.82 | vestibulomotor performance on the rotarod compared to vehicle [3]: improved vestibulomotor performance
